From patent US5350743A, “Bisphosphonic acid derivatives, as bone resorption inhibitors” (Kaken Pharmaceutical Co., Ltd., priority 1991, dated 1994)

Experiments:
[1] = test system: bone resorption activities by PTH; format: in vivo, rat (Wister male); conditions: sc, 10 mg/kg; for Serum calcium value, 1 day value (b) / Serum increased calcium value [(b)-(a)]: 24 h
Excerpt: Now, the test method with respect to the antihypercalcemic activities of the compounds of the present invention by using rats having the thyroid gland and the pala thyroid gland removed, and the results will be described.
Wister male rats of 7 weeks old (150-170 g) were anesthetized with nenbutal, and the thyroid gland and the pala thyroid gland were surgically removed by the method disclosed by Russel R. G. et al, Calcif. Tissue, Res., 183-196 (1970) and by Muehlbauer R. C. et al, Mineral Electrolyte Metab., 5 296-300 (1981). After the operation, the rats were fed on normal food for three days, and on the fourth day, the blood was sampled, and the serum calcium value was measured by an atomic absorption method, whereby rats having the serum calcium value lowered to a level of from 5 to 7 mg/de were selected.
These rats were divided into groups so that each group consisted of five rats. A compound of the present invention was dissolved in a 0.5% CMC aqueous solution or physiological saline and adjusted for administration at a dose of 10 mg/kg. Such a solution was subcutaneously administered at a dose of 2 ml/kg once a day for three days. To a control group, a 0.5% CMC aqueous solution or physiological saline was administered. Next day, 0.2 ml of the blood was sampled, and the serum calcium value was measured in the same manner as described above (this value was designated as 0 day value (a)).
At the same time, an osmotic pump (2001 Model, manufactured by Alza Co.) having parathyroid hormone (PTH) (50 μg/0.2 ml physiological saline) sealed in, was subcutaneously embedded on the back of each rat, and 24 hours later, the blood was sampled from the aorta abdominalis, whereupon the serum calcium value was measured (this value was designated as one day value (b)).
From the obtained results, the serum increased calcium value was calculated by the following formula: [formula]

[2] = toxicity, LD50, subcutaneous injection to mice; conditions: mouse, in vivo, sc, ddy mice male five weeks old (22-27 g)
Description: LD50 of the compounds of Examples 2, 14, 16, 18, 33, 34 and 58 was at least 100 mg/kg when subcutaneously injected to ddy mice (male) of five weeks old (22-27 g).

NCCC(O)(P(=O)(O)O)P(=O)(O)O [APD, reference compound]
Serum calcium value, 0 day value (a) [1]: 60.2 ± 8.32 µg/mL | Serum calcium value, 1 day value (b) [1]: 83.6 ± 3.13 µg/mL | Serum increased calcium value [(b)-(a)] [1]: 23.4 ± 6.50 µg/mL

O=P(O)(O)C(N1CCC2(CCCCC2)CC1)P(=O)(O)O [Example 2, 3-azaspiro[5.5]undecan-3-yl-methylene bisphosphonic acid]
Serum calcium value, 0 day value (a) [1]: 47.2 ± 2.22 µg/mL | Serum calcium value, 1 day value (b) [1]: 109.0 ± 8.47 µg/mL | Serum increased calcium value [(b)-(a)] [1]: 61.8 ± 7.38 µg/mL | LD50 [2]: ≥ 100 mg/kg

O=P(O)(O)C(N1CCC2(CC1)CC2(F)F)P(=O)(O)O [Example 4, 1,1-difluoro-6-azaspiro[2.5]octan-6-yl-methylene bisphosphonic acid]
Serum calcium value, 0 day value (a) [1]: 51.4 ± 7.23 µg/mL | Serum calcium value, 1 day value (b) [1]: 128.7 ± 3.31 µg/mL | Serum increased calcium value [(b)-(a)] [1]: 77.3 ± 6.37 µg/mL

O=P(O)(O)C(N1CCC2(CCCC2)CC1)P(=O)(O)O [Example 6, 8-azaspiro[4.5]decan-8-yl-methylene bisphosphonic acid]
Serum calcium value, 0 day value (a) [1]: 40.3 ± 3.61 µg/mL | Serum calcium value, 1 day value (b) [1]: 90.6 ± 5.30 µg/mL | Serum increased calcium value [(b)-(a)] [1]: 50.3 ± 6.25 µg/mL

O=P(O)(O)C(N1CCCC12CCCCC2)P(=O)(O)O [Example 8, 1-azaspiro[4.5]decan-1-yl-methylene bisphosphonic acid]
Serum calcium value, 0 day value (a) [1]: 47.1 ± 4.17 µg/mL | Serum calcium value, 1 day value (b) [1]: 109.8 ± 2.07 µg/mL | Serum increased calcium value [(b)-(a)] [1]: 62.7 ± 4.27 µg/mL

O=P(O)(O)C(N1CCCCC12CCCCC2)P(=O)(O)O [Example 10, 1-azaspiro[5.5]undecan-1-yl-methylene bisphosphonic acid]
Serum calcium value, 0 day value (a) [1]: 45.5 ± 5.54 µg/mL | Serum calcium value, 1 day value (b) [1]: 108.8 ± 6.80 µg/mL | Serum increased calcium value [(b)-(a)] [1]: 63.3 ± 1.91 µg/mL

O=P(O)(O)C(N1CCCC2(CCCCC2)C1)P(=O)(O)O [Example 12, 2-azaspiro[5.5]undecan-2-yl-methylene bisphosphonic acid]
Serum calcium value, 0 day value (a) [1]: 53.9 ± 7.82 µg/mL | Serum calcium value, 1 day value (b) [1]: 138.9 ± 4.29 µg/mL | Serum increased calcium value [(b)-(a)] [1]: 85.0 ± 6.27 µg/mL

C=C1CCN(C(P(=O)(O)O)P(=O)(O)O)CC1 [Example 14, 4-methylidenepiperidinomethylene bisphosphonic acid]
Serum calcium value, 0 day value (a) [1]: 60.99 ± 2.67 µg/mL | Serum calcium value, 1 day value (b) [1]: 68.34 ± 2.94 µg/mL | Serum increased calcium value [(b)-(a)] [1]: 7.35 ± 2.65 µg/mL | LD50 [2]: ≥ 100 mg/kg

CCCCCC=C1CCN(C(P(=O)(O)O)P(=O)(O)O)CC1 [Example 16, 4-hexylidenepiperidinomethylene bisphosphonic acid]
Serum calcium value, 0 day value (a) [1]: 52.12 ± 1.86 µg/mL | Serum calcium value, 1 day value (b) [1]: 53.30 ± 4.89 µg/mL | Serum increased calcium value [(b)-(a)] [1]: 1.18 ± 3.70 µg/mL | LD50 [2]: ≥ 100 mg/kg

CC=C1CCN(C(P(=O)(O)O)P(=O)(O)O)CC1 [Example 18, 4-ethylidenepiperidinomethylene bisphosphonic acid]
Serum calcium value, 0 day value (a) [1]: 61.34 ± 7.49 µg/mL | Serum calcium value, 1 day value (b) [1]: 66.05 ± 6.68 µg/mL | Serum increased calcium value [(b)-(a)] [1]: 4.72 ± 4.05 µg/mL | LD50 [2]: ≥ 100 mg/kg

CCC=C1CCN(C(P(=O)(O)O)P(=O)(O)O)CC1 [Example 20]
Serum calcium value, 0 day value (a) [1]: 63.02 ± 3.75 µg/mL | Serum calcium value, 1 day value (b) [1]: 71.73 ± 6.32 µg/mL | Serum increased calcium value [(b)-(a)] [1]: 8.71 ± 2.72 µg/mL

CCCC=C1CCN(C(P(=O)(OCC)OCC)P(=O)(OCC)OCC)CC1 [Example 21, 4-Butylidenepiperidinomethylene bisphosphonic acid ethyl ester]
Serum calcium value, 0 day value (a) [1]: 60.87 ± 5.61 µg/mL | Serum calcium value, 1 day value (b) [1]: 65.92 ± 7.91 µg/mL | Serum increased calcium value [(b)-(a)] [1]: 5.05 ± 3.19 µg/mL

CCOP(=O)(OCC)C(N1CCC(Cc2ccccc2)CC1)P(=O)(OCC)OCC [Example 27, 4-Benzylpiperidinomethylene bisphosphonic acid ethyl ester]
Serum calcium value, 0 day value (a) [1]: 66.2 ± 3.13 µg/mL | Serum calcium value, 1 day value (b) [1]: 79.5 ± 2.77 µg/mL | Serum increased calcium value [(b)-(a)] [1]: 13.3 ± 1.62 µg/mL

CCOP(=O)(OCC)C(N1CCC(C(N)=O)(N2CCCCC2)CC1)P(=O)(OCC)OCC [Example 29, 4-Carbamoyl-4-(1-piperidyl)piperidinomethylene bisphosphonic acid ethyl ester]
Serum calcium value, 0 day value (a) [1]: 66.7 ± 5.91 µg/mL | Serum calcium value, 1 day value (b) [1]: 74.8 ± 1.82 µg/mL | Serum increased calcium value [(b)-(a)] [1]: 8.1 ± 4.35 µg/mL

CCOP(=O)(OCC)C(N1CCC(F)(F)CC1)P(=O)(OCC)OCC [Example 31, 4,4-Difluoropiperidinomethylene bisphosphonic acid ethyl ester]
Serum calcium value, 0 day value (a) [1]: 65.3 ± 3.15 µg/mL | Serum calcium value, 1 day value (b) [1]: 73.1 ± 3.96 µg/mL | Serum increased calcium value [(b)-(a)] [1]: 7.8 ± 3.57 µg/mL

CC1(Cl)CCN(C(P(=O)(O)O)P(=O)(O)O)CC1 [Example 33, 4-Chloro-4-methylpiperidinomethylene bisphosphonic acid]
Serum calcium value, 0 day value (a) [1]: 52.1 ± 1.73 µg/mL | Serum calcium value, 1 day value (b) [1]: 53.3 ± 4.91 µg/mL | Serum increased calcium value [(b)-(a)] [1]: 1.2 ± 3.77 µg/mL | LD50 [2]: ≥ 100 mg/kg

CC1(O)CCN(C(P(=O)(O)O)P(=O)(O)O)CC1 [Example 34, 4-Hydroxy-4-methylpiperidinomethylene bisphosphonic acid]
Serum calcium value, 0 day value (a) [1]: 61.0 ± 2.82 µg/mL | Serum calcium value, 1 day value (b) [1]: 68.3 ± 2.87 µg/mL | Serum increased calcium value [(b)-(a)] [1]: 7.4 ± 2.69 µg/mL | LD50 [2]: ≥ 100 mg/kg

CCCCCCC1(O)CCN(C(P(=O)(O)O)P(=O)(O)O)CC1 [Example 35, 4-Hexyl-4-hydroxypiperidinomethylene bisphosphonic acid]
Serum calcium value, 0 day value (a) [1]: 70.8 ± 3.85 µg/mL | Serum calcium value, 1 day value (b) [1]: 84.5 ± 6.73 µg/mL | Serum increased calcium value [(b)-(a)] [1]: 13.7 ± 4.13 µg/mL

CCOP(=O)(OCC)C(N1CCC(C)(F)CC1)P(=O)(OCC)OCC [Example 37, 4-Fluoro-4-methylpiperidinomethylene bisphosphonic acid ethyl ester]
Serum calcium value, 0 day value (a) [1]: 53.8 ± 2.10 µg/mL | Serum calcium value, 1 day value (b) [1]: 55.7 ± 3.63 µg/mL | Serum increased calcium value [(b)-(a)] [1]: 1.9 ± 3.10 µg/mL

CC(C)(C)C1(O)CCN(C(P(=O)(O)O)P(=O)(O)O)CC1 [Example 54, 4-t-Butyl-4-hydroxypiperidinomethylene bisphosphonic acid]
Serum calcium value, 0 day value (a) [1]: 67.3 ± 2.83 µg/mL | Serum calcium value, 1 day value (b) [1]: 77.0 ± 3.74 µg/mL | Serum increased calcium value [(b)-(a)] [1]: 9.7 ± 5.32 µg/mL

CC1(C)CCCN(C(P(=O)(O)O)P(=O)(O)O)C1 [Example 58, 3,3-dimethylpiperidinomethylene bisphosphonic acid]
Serum calcium value, 0 day value (a) [1]: 50.8 ± 2.35 µg/mL | Serum calcium value, 1 day value (b) [1]: 130.4 ± 7.57 µg/mL | Serum increased calcium value [(b)-(a)] [1]: 79.6 ± 7.07 µg/mL | LD50 [2]: ≥ 100 mg/kg

CC1(C)CCN(C(P(=O)(O)O)P(=O)(O)O)CC1 [Example 60, 4,4-dimethylpiperidinomethylene bisphosphonic acid]
Serum calcium value, 0 day value (a) [1]: 46.5 ± 8.69 µg/mL | Serum calcium value, 1 day value (b) [1]: 110.4 ± 1.59 µg/mL | Serum increased calcium value [(b)-(a)] [1]: 63.9 ± 2.15 µg/mL
